Data published in patent publication US20250144442A1, “LIGHT-GUIDING ADHESIVE PATCH” (SAMSUNG LIFE PUBLIC WELFARE FOUNDATION, priority 2023, published 2025).

Tested on: malignant glioma U87 cell line
Test: WST-1 cell viability assay for PDT anti-cancer effectiveness
Format: cell-based
Details: 50 μM Hypericin, 2 hours incubation at 37° C., U87 cells, no simultaneous light; FIG. 11a
Method: To maximize light transmission, a 530±15 nm LED was used to verify the improvement in PDT efficiency with a developed light-guiding adhesive patch using the malignant glioma U87 cell line.
Specifically, the anti-cancer effectiveness through PDT was verified using the WST-1 cell viability assay. During the PDT efficiency verification, initial tests were conducted to establish PDT conditions, investigating the toxicity of the photosensitizer and light exposure.

## Cc1cc(O)c2c(=O)c3c(O)cc(O)c4c5c(O)cc(O)c6c(=O)c7c(O)cc(C)c8c1c2c(c34)c(c78)c65 [Hypericin]
  inhibition of cell viability (toxicity of the photosensitizer): No specific inhibition of cell viability
